Assay results: patent publication US20090156477A1, “Compositions and Methods for Regulating Inflammatory Responses” (Massachusetts Institute of Technology, priority 2005, published 2009)
“Also recorded” adds a separate entry of the source.

Assays:
Format in all cases: cell-based, human
E-cadherin = assay: Immunohistochemistry for E-cadherin in Caco-2 cells; settings: for E-cadherin localization after 24 hours: vs 1 hour and vs PBS and FGF1
Method: Caco-2 cells were grown to just prior to confluency on collagen IV coated glass slides. Cells were treated with PBS, FGF1, FGF2 and FGF7, and were incubated at 37° C. in a 5% CO2 humidified incubator for 1 hour, 4 hours, 24 hours or 48 hours, as noted. Cells were washed with PBS, fixed with 3.7% formalin for 10 minutes and washed again with PBS. Cells were treated with 0.1% Triton x-100 for 5 minutes to extract lipids. Cells were washed with PBS and preincubated with PBS supplemented with 1% bovine serum albumin. Primary antibodies were added for 4 hours at room temperature, and cells were washed with PBS. Primary antibodies used were as follows: rabbit anti-human ZO-1 (1:160; Zymed Laboratories, San Francisco, Calif.); mouse anti-human syndecan-1 (1:300; Santa Cruz Biotechnology); goat anti-human Fz-1 (1:125; Santa Cruz Biotechnology); rabbit anti-human caveolin-1 (1:250; Santa Cruz Biotechnology); goat anti-human glypican-1 (1:100; Santa Cruz Biotechnology); mouse anti-human E-cadherin (1:250; Zymed Laboratories); rabbit anti-human β-catenin (1:125; Cell Signaling Technology, Beverly, Mass.); and rabbit anti-human phospho-β-catenin (Ser33/37/Thr41; 1:125; Cell Signaling Technology, Beverly, Mass.).
Cells were then treated with secondary antibodies, Texas Red-labeled phalloidin (Molecular Probes, Eugene, Oreg.) or FLAER-FL1 (1:400; Protox Biotech, Victoria, BC, Canada) as appropriate for 1 hour in the dark at room temperature. Secondary antibodies used were as follows: FITC-labeled chicken anti-rabbit (for ZO-1; 1:100; Molecular Probes, Eugene, Oreg.); Texas Red-labeled goat-anti mouse (for syndecan-1; 1:400; Molecular Probes); FITC-labeled donkey anti-mouse (for syndecan-1; 1:400; Molecular Probes, Eugene, Oreg.); FITC-labeled rabbit anti-mouse (for syndecan-1 and E-cadherin; 1:500; Molecular Probes, Eugene, Oreg.); Texas Red-labeled rabbit anti-goat (for Fz-1; 1:200; Jackson ImmunoResearch Laboratories, West Grove, Pa.); Texas Red-labeled goat anti-rabbit (for caveolin-1, β-catenin and phospho-β-catenin; 1:500; Molecular Probes); and Texas Red-labeled donkey anti-goat (for glypican-1; 1:80; Research Diagnostics, Flanders, N.J.).
(§1) Cells, except those stained with phalloidin, were washed with PBS and stained with diamidino-2-phenylindole (DAPI) for 5 minutes at room temperature (Molecular Probes). Controls of no antibody, primary antibody only, and secondary antibody only were performed. Cells were examined by confocal microscopy (ZO-1 and phalloidin only), or by fluorescence microscopy. A Nikon HB10101AF fluorescence microscope was used and images were captured at room temperature using a Hitachi HVC20 camera and Scion image acquisition software. Images were processed using Adobe Photoshop 7.0 and Adobe Illustrator 10.0.

phospho-β-catenin = assay: Immunohistochemistry for phospho-β-catenin in Caco-2 cells
Method: Caco-2 cells were grown to just prior to confluency on collagen IV coated glass slides. Cells were treated with PBS, FGF1, FGF2 and FGF7, and were incubated at 37° C. in a 5% CO2 humidified incubator for 1 hour, 4 hours, 24 hours or 48 hours, as noted. Cells were washed with PBS, fixed with 3.7% formalin for 10 minutes and washed again with PBS. Cells were treated with 0.1% Triton x-100 for 5 minutes to extract lipids. Cells were washed with PBS and preincubated with PBS supplemented with 1% bovine serum albumin. Primary antibodies were added for 4 hours at room temperature, and cells were washed with PBS. […]
as §1, with “Controls of no antibody, primary antibody only, and secondary antibody only were performed.” left out, “Images were processed using Adobe Photoshop 7.0 and Adobe Illustrator 10.0.” left out

Caco-2 monolayers = assay: Monolayer flux of 3 kDa FITC-dextran, Caco-2; settings: 100 ng/ml ligand on days 10 and 12, flux measured on day 15, PBS 20.28 ± 4.72
Method: (§2) Cells were plated on transwells as described. Media from the basolateral chamber was removed every other day and replaced with new media. Resistances were followed for 10 days, and either 100 ng/ml FGF2, 100 ng/ml FGF7 or 10 μl PBS were added on days 10 and 12. On day 15, media was removed from both the apical and basolateral chambers. The basolateral chamber was filled with 1 ml HBSS. FITC conjugated to 3 kDa dextran was added to the apical chamber in a volume of 100 μl, at 1 mg/ml in HBSS. After 30, 60 and 90 minutes, 50 μl was removed from the basolateral chamber and transferred to a 96 well plate, and 50 μl HBSS was added to the basolateral chamber. Subsequently, the flux was determined by measurement of FITC-conjugated dextran that crossed the monolayer by measurement with a fluorimeter, stimulating at 480 nm and measuring emission at 530 nm.

T84 monolayers = assay: Monolayer flux of 3 kDa FITC-dextran, T84; settings: 100 ng/ml ligand on days 10 and 12, flux measured on day 15, PBS 7.99 ± 0.22
Method: as §2

TCF/LEF = TCF/LEF assay (TOPFLASH luciferase) in Caco-2 cells; settings: compared to PBS and FGF1
Method: Caco-2 cells were seeded in 12 well plates such that they would reach 90% confluency in 4 days. Two days after plating, Caco-2 cells were transiently transfected with the TOPFLASH (contains 4 TCF/LEF binding elements) luciferase promoter construct (Promega, Madison, Wis.) as well as a thymidine kinase driven renilla luciferase construct (Promega, Madison, Wis.) as a transfection control vector. Each well was transfected with 1.5 μg DNA using Superfect transfection reagent (Promega, Madison, Wis.). Twenty-four hours after transfection, Caco-2 cells were treated with PBS, FGF1, FGF2 or FGF7, for 1 hour, 4 hours or 24 hours. The Caco-2 cells were processed using a dual-luciferase assay system to measure luciferase activity from both the TOPFLASH constructs and the renilla constructs. All results were standardized to the relative transfection efficiencies as observed from the renilla values.

occludin and ZO-1 = assay: Immunostaining for occludin and ZO-1 in Caco-2 cells; settings: 100 ng/ml
Method: To determine occludin and ZO-1 expression patterns, cells were plated on transwells as described for TER assays. Media from the basolateral chamber was removed every other day and replaced with new media. Resistances were measured for 10 days, and either 100 ng/ml FGF2, 100 ng/ml FGF7 or 10 μl PBS were added on days 10 and 12. On day 15, media was removed from both the apical and basolateral chambers, and the apical chamber was washed twice with PBS. One ml of 1% (w/v) paraformaldehyde in cacodylate buffer was added to each well, the plates were incubated for 10 minutes at room temperature, and the wells were washed once in PBS. One ml permeabilization media, consisting of 0.2% Triton X-100 and 2% BSA in PBS, was added to each well. After a 10 minute incubation at room temperature, wells were washed three times. 20 μl primary antibodies (rabbit polyclonal anti-human or occludin rabbit polyclonal anti-human ZO-1) diluted 1:20 in 1% goat serum, 0.25% sodium azide in PBS, were added to the apical chamber of three wells per antibody per ligand, and plates were incubated for 1 hour in a humidified chamber. […] Staining was then visualized by fluorescence microscopy. […] A Nikon HB10101AF fluorescence microscope was used to capture images at room temperature using a Hitachi HVC20 camera and Scion image acquisition software. […]

| Molecule | E-cadherin localization after 1 hour (E-cadherin) | E-cadherin localization after 24 hours (E-cadherin) | phosphorylated β-catenin localization (phospho-β-catenin) | Flux across monolayers (3 kDa-dextran conjugated to FITC; function of emission at 530 nm over time) (Caco-2 monolayers) | Flux across monolayers (3 kDa-dextran conjugated to FITC; function of emission at 530 nm over time) (T84 monolayers) | TCF/LEF activity (TCF/LEF) | membrane ruffling (tight junction protein staining) (occludin and ZO-1) |
| --- | --- | --- | --- | --- | --- | --- | --- |
| FGF2: Recombinant human FGF2, produced as described | altered E-cadherin localization | more cytoplasmic localization | clustered around the nucleus | 47.82 ± 4.64 | 37.21 ± 10.25 | increased TCF/LEF activity | induced ruffling of cell membranes; also recorded: induced notable membrane ruffling |
| FGF7: Recombinant human FGF7 from Sigma (protein, UniProt P21781 32-194, looked up) Fibroblast growth factor 7: CNDMTPEQMATNVNCSSPERHTRSYDYMEGGDIRVRRLFCRTQWYLRIDKRGKVKGTQEMKNNYNIMEIRTVAVGIVAIKGVESEFYLAMNKEGKLYAKKECNEDCNFKELILENHYNTYASAKWTHNGGEMFVALNQKGIPVRGKKTKKEQKTAHFLPMAIT | altered E-cadherin localization | more cytoplasmic localization | clustered around the nucleus | 117.14 ± 25.36 | 33.39 ± 9.24 | increased TCF/LEF activity | induced ruffling of cell membranes; also recorded: induced notable membrane ruffling |
